Earlier results in patent US11577212B2, “Stimuli-responsive micro-reservoirs for release of encapsulants” (priority 2018, dated 2023).

| SMILES | solubility in water |
| --- | --- |
| COCCOC [1,2-dimethoxy-ethane (glyme, DME), 1,2-dimethoxy-ethane] | Miscible |
| CN(C)P(N(C)C)N(C)C [Hexamethylphosphorous triamide (HMPT), Hexamethylphosphorous triamide] | Miscible |
| Clc1ccccc1 [chlorobenzene] | 0.05 g/100 g |
| COCCOCCOC [diethylene glycol dimethyl ether] | Miscible |
| CCO [ethanol] | Miscible |
| CCOC(C)=O [ethyl acetate] | 8.7 g/100 g |
| CCCCC [pentane] | 0.04 g/100 g |

Continued, values first:

| solubility in water | SMILES |
| --- | --- |
| 0.0055 g/100 g | C1CCCCC1 [cyclohexane] |
| Miscible | OCC(O)CO [glycerin] |
| 0.0014 g/100 g | CCCCCC [hexane] |
